Data on 2 molecules can be found in ChEMBL document CHEMBL5365481, “Design, Synthesis, and Activity Evaluation of Novel Dual-Target Inhibitors with Antifungal and Immunoregulatory Properties” (J Med Chem, 2023).

For data set [1], the system named is Candida albicans. The data set can be described thus: In vivo antifungal activity against Candida albicans ATCC SC5314 infected in BALB/c mouse assessed as decrease in necrotic cell debris in tissue gap at 10 ug, ip for 14 days in presence of Biphenyl isopropyl ester by GMS staining based microscopy. Particulars: dose 10.0 µg, time 14.0 day. The format is functional, organism-based.

Data set [2] is described as follows: Toxicity in BALB/c mouse infected with Candida albicans ATCC SC5314 assessed as morphological changes in spleen at 10 ug, ip for 14 days in presence of Biphenyl isopropyl ester by H and E staining based microscopy. The format is organism-based. The conditions noted are these: in vivo, 336 h, dose 10 µg, time 14 day.
Data set [3] deals with Candida albicans. The data set is described as follows: In vivo antifungal activity against Candida albicans ATCC SC5314 infected in BALB/c mouse assessed as decrease in IFN-gamma expression level at 10 ug, ip for 14 days in presence of Biphenyl isopropyl ester by Western blot analysis. Type of data set: functional, organism-based. Particulars: dose 10.0 µg, time 14.0 day.

The nature of data set [4]: Toxicity in BALB/c mouse infected with Candida albicans ATCC SC5314 assessed as morphological changes in kidney at 10 ug, ip for 14 days in presence of Biphenyl isopropyl ester by H and E staining based microscopy. Type of data set: organism-based. Particulars: in vivo, 336 h, dose 10 µg, time 14 day.
The subject of data set [5] is Candida albicans. The data set can be described thus: In vivo antifungal activity against Candida albicans ATCC SC5314 infected in BALB/c mouse assessed as decrease in COX2 expression level at 10 ug, ip for 14 days in presence of Biphenyl isopropyl ester by Western blot analysis. The format is functional, organism-based. The conditions noted are these: dose 10.0 µg, time 14.0 day.

In data set [6] the test system is Candida albicans. The data set can be described thus: In vivo antifungal activity against Candida albicans ATCC SC5314 infected in BALB/c mouse assessed as decrease in NLRP3 expression level at 10 ug, ip for 14 days in presence of Biphenyl isopropyl ester by Western blot analysis. The conditions noted are these: dose 10.0 µg, time 14.0 day. Type of data set: functional, organism-based.

Data set [7] deals with Candida albicans. The data set is described as follows: In vivo antifungal activity against Candida albicans ATCC SC5314 infected in BALB/c mouse assessed as decrease in IL-2 expression level at 10 ug, ip for 14 days in presence of Biphenyl isopropyl ester by immunohistochemical analysis. The format is functional, organism-based. The conditions noted are these: dose 10.0 µg, time 14.0 day.

For data set [8], the system named is Candida albicans. The data set is described as follows: In vivo antifungal activity against Candida albicans ATCC SC5314 infected in BALB/c mouse assessed as increase in body weight at 10 ug, ip for 14 days in presence of Biphenyl isopropyl ester. The format is functional, organism-based. The conditions noted are these: dose 10.0 µg, time 14.0 day.
A short description of data set [9]: Toxicity in BALB/c mouse infected with Candida albicans ATCC SC5314 assessed as plasma AST level at 10 ug, ip for 14 days in presence of Biphenyl isopropyl ester. Type of data set: organism-based. The conditions noted are these: in vivo, 336 h, dose 10 µg, time 14 day.
Data set [10] relates to Candida albicans. The data set is described as follows: In vivo antifungal activity against Candida albicans ATCC SC5314 infected in BALB/c mouse assessed as decrease in number of exogenous fungal cells at 10 ug, ip for 14 days in presence of Biphenyl isopropyl ester by H and E staining based microscopy. The format is functional, organism-based. The conditions noted are these: dose 10.0 µg, time 14.0 day.

The nature of data set [11]: Toxicity in BALB/c mouse infected with Candida albicans ATCC SC5314 assessed as morphological changes in lung at 10 ug, ip for 14 days in presence of Biphenyl isopropyl ester by H and E staining based microscopy. The format is organism-based. The conditions noted are these: in vivo, 336 h, dose 10 µg, time 14 day.
Data set [12] in a line: Toxicity in BALB/c mouse infected with Candida albicans ATCC SC5314 assessed as plasma ALT level at 10 ug, ip for 14 days in presence of Biphenyl isopropyl ester. The format is organism-based. Particulars: in vivo, 336 h, dose 10 µg, time 14 day.
The test system of data set [13] is Candida albicans. The data set is described as follows: In vivo antifungal activity against Candida albicans ATCC SC5314 infected in BALB/c mouse assessed as shrinkage in infected region at 10 ug, ip for 14 days in presence of Biphenyl isopropyl ester. The format is functional, organism-based. Particulars: dose 10.0 µg, time 14.0 day.
The nature of data set [14]: Toxicity in BALB/c mouse infected with Candida albicans ATCC SC5314 assessed as morphological changes in heart at 10 ug, ip for 14 days in presence of Biphenyl isopropyl ester by H and E staining based microscopy. The format is organism-based. The conditions noted are these: in vivo, 336 h, dose 10 µg, time 14 day.
In data set [15] the test system is Cell membrane. The data set is described as follows: Induction of cell membrane integrity disruption in Candida albicans ATCC SC5314 assessed as decrease in cell membrane thickness at 1 microM/ml incubated for 48 to 72 hrs by TEM analysis. Type of data set: subcellular. Particulars: time 48-72 hrs.
Data set [16] relates to Cell membrane. The data set can be described thus: Induction of cell membrane integrity disruption in Candida albicans ATCC SC5314 assessed as decrease in cell wall thickness at 1 microM/ml incubated for 48 to 72 hrs by TEM analysis. The format is subcellular. The conditions noted are these: time 48-72 hrs.
Data set [17] deals with Cell membrane. The data set is described as follows: Induction of cell membrane integrity disruption in Candida albicans ATCC SC5314 assessed as cell destruction at 1 microM/ml incubated for 96 hrs by TEM analysis. The format is subcellular.
Data set [18] deals with Cell membrane. The data set can be described thus: Induction of cell membrane integrity disruption in Candida albicans ATCC SC5314 assessed as reduced cytoplasmic density at 1 microM/ml incubated for 48 to 72 hrs by TEM analysis. Particulars: time 48-72 hrs. Type of data set: subcellular.
Data set [19] concerns Cell membrane. The data set is described as follows: Induction of cell membrane integrity disruption in Candida albicans ATCC SC5314 assessed as accumulation of low density particulate matter at 1 microM/ml incubated for 48 to 72 hrs by TEM analysis. Type of data set: subcellular. The conditions noted are these: time 48-72 hrs.
Data set [20] concerns Cell membrane. The data set is described as follows: Induction of cell membrane integrity disruption in Candida albicans ATCC SC5314 assessed as edema vacuoles at 1 microM/ml incubated for 48 to 72 hrs by TEM analysis. The format is subcellular. Particulars: time 48-72 hrs.
The subject of data set [21] is Cell membrane. The data set can be described thus: Induction of cell membrane integrity disruption in Candida albicans ATCC SC5314 assessed as disappearance of nuclei at 1 microM/ml incubated for 48 to 72 hrs by TEM analysis. Type of data set: subcellular. Particulars: time 48-72 hrs.

The source made the active and inactive calls. The rule behind the calls is not given here.

With `OC(Cn1cncn1)(Cn1cncn1)c1ccc(F)cc1F` [FLUCONAZOLE], the result in the data set with Candida albicans [1], in the data set with Candida albicans [3], in the data set with Candida albicans [5], with Candida albicans [6], in the data set on Candida albicans [7] and in the data set on Candida albicans [8] was Active. The outcome in the data set on Candida albicans [10] and in the data set on Candida albicans [13] was Active. Besides, the Activity result in [2] was “Non-Toxic”; in data set [4] it was “Non-Toxic”; in [9], 71.9 IU/L; in data set [11] it was “Non-Toxic”; in data set [12], 37.2 IU/L; in [14] it was “Non-Toxic”.

Take `CC(=O)c1ccc(C(=O)N2CCC(NC(=O)c3nc(-n4cncn4)c4ccccc4n3)CC2)cc1`: the result in the data set on Cell membrane [15], in the data set with Cell membrane [16], in the data set on Cell membrane [17], in the data set with Cell membrane [18], in the data set with Cell membrane [19] and in the data set on Cell membrane [20] was Active. Besides, in the data set on Cell membrane [21], the result was Active.
